Data as given in US20260070921A1, “COMPOUND, ENDOPLASMIC RETICULUM STRESS INHIBITOR, PHARMACEUTICAL PRODUCT, OPHTHALMIC AGENT, EYE DROPS, COMPOSITION, AND METHOD FOR PRODUCING COMPOUND” (KYOTO UNIVERSITY, priority 2022, published 2026).

Legend:
HEK293 cells [1] = assay: Tunicamycin assay (cell viability under ER stress, WST-8); assay type: cell-based; set-up: key to Efficacy 5 μM (ER stress inhibition activity) / Efficacy 25 μM (ER stress inhibition activity) / Efficacy 100 μM (ER stress inhibition activity): “−” indicates no activity; “+” indicates weak activity; “++” indicates strong activity; conditions: for EC50: Homo sapiens, HEK293, read-out: EC50 (dose-response curve, Hill equation); for EC50 / Concentration at which activity was shown: tunicamycin 5.0 μg/mL 48 h
Experimental: HEK293 cells were seeded in 96-well plates ([…]) and incubated at 37° C. for 2 hours. The medium was then replaced with 100 μL of DMEM ([…]) containing self-assembling chemicals (20 or more compounds, including compounds of the present disclosure) and 1% DMSO. After incubation with any one of compounds 1 to 6 at a given concentration for 12 to 18 hours, HEK293 cells were treated with tunicamycin (5 μg/mL) or thapsigargin (10 μM) for 48 hours, and cell viability was measured using a WST-8 cell counting kit (Dojindo Laboratories).
Produced compounds XD8 to XD28 were subjected to a tunicamycin assay in the same manner as in Examples 1 to 9. Specifically, HEK293 cells were first seeded in a 96-well plate (1×10^4 cells/well) and incubated at 37° C. for 2 hours. The medium was then replaced with 100 μL of DMEM (10% FBS) containing a self-assembling chemical (each of compounds XD8 to XD28) and […]. After incubation with any of compounds XD8 to XD28 at a concentration of 5.0 μM, 25 μM, or 100 μM for 12 to 18 hours, HEK293 cells were treated with tunicamycin (5 μg/mL) for 48 hours, followed by measuring cell viability by using a WST-8 cell counting kit (Dojindo Laboratories).

HEK293 cells [2] = assay: Cell viability assay without ER stress inducer (cytotoxicity, WST-8); assay type: cell-based; conditions: 64 h
Experimental: HEK293 cells were treated with compound 1, compound 4, compound 5, or compound 6 (25 μM or 100 μM, respectively) for 64 hours. The vertical axis represents relative cell viability (unit: %), and the horizontal axis represents concentration (unit: μM). Cell viability was measured using a WST-8 cell counting kit. Error bars represent s.d. (n=3).
(§1) FIG. 31 is a graph showing the results of a cell viability assay using bafilomycin A1. HEK293 cells were treated with bafilomycin A1 in DMEM (10% FBS) for 48 hours. The vertical axis represents relative cell viability (unit: %), and the horizontal axis represents the concentration of bafilomycin A1 (unit: μM). Cell viability was measured using a WST-8 cell counting kit. Error bars represent s.d. (n=3).
as §1, with “32” for “31”, “MG132.” for “bafilomycin A1.”, “MG132” for “bafilomycin A1”, “t),” for “%),”
The term “Efficacy” denotes ER (endoplasmic reticulum) stress inhibition activity. The term “Toxicity” denotes cytotoxicity. In the ER stress inhibition activity (Efficacy), “−” indicates no activity, “+” indicates weak activity, and “++” indicates strong activity. In addition, “XD7” in Table 1 below represents compound 6. That is, XD7 and compound 6 are the same compound.

[3] = Reversibility of self-assembly on dilution (DCVJ fluorescence); assay type: physicochemical; conditions: dilution of preformed assemblies
Experimental: Compound 1 (100 μM) was incubated in DMEM (10% FBS, 0.5, DMSO) at 25° C. for 1 hour to allow it to form self-assemblies. A solution of pre-formed assemblies of compound 1 was diluted in various ratios with DMEM (10% FBS, 0.5% DMSO). All samples contained 1.0 μM DCVJ, an environmentally sensitive dye, to quantify the amount of self-assembly of compound 1 by fluorescence. If the self-assembly is irreversible (upper graph in the frame), the fluorescence signal is linear with respect to the amount of the compound. […] In the two graphs within the frame, the vertical axis represents fluorescence, and the horizontal axis represents concentration. […] A time-dependent decrease in fluorescence at 25 μM (as a monomer of compound 1) was also observed. Error bars represent s.d. (n=3).

[4] = Confocal microscopy of Nile red-stained assemblies; assay type: physicochemical; conditions: cell culture medium, prolonged incubation (>5 hr)
Experimental: Doping with the environmentally sensitive dyes, Nile red and 9-(2,2-dicyanovinyl)julolidine (DCVJ), enabled detection of assembly formation by fluorescence spectroscopy and confocal microscopy. The relative amount of self-organization of compound 1 was quantified using DCVJ to form a DMEM-normalized dose-organization curve (FIG. 24). Fitting with a sigmoid curve gave an apparent half-maximal assembly concentration (AC50) of 29.7 μM for the molecules of compound 1. […] In confocal microscopy, assemblies of compound 1 stained with Nile red were readily detectable in PBS (pH of 7.4). In the cell culture medium, assemblies of compound 1 stained with Nile red were initially not visible due to the small particle size, but prolonged incubation (>5 hr) led to the formation of larger detectable assemblies (>1 μm in diameter).

C57BL6J mice = assay: Lens-induced myopia in mice, eye drops; assay type: in vivo; conditions: −30 D lens 3 weeks, eye drop once a day
Experimental: (§2) A −30 diopter (unit of refractive index: D) lens was attached to the right eye of 3-week-old male C57BL6J mice, while only a lens frame was attached to the left eye, which served as a control eye. The lenses were worn for three weeks, and the refractive index and axial length of eyes were measured before and after attachment of the lenses. Concurrently with myopia induction, an eye drop, which is a 0.025 solution of X441A in PBS, was administered by instillation once a day every day. PBS was administered by eye drop to the control group (group administered with PBS). After 3 weeks of myopia induction and eye drop administration, the eyeballs were enucleated from the mice, and the sclera was isolated. Then, western blotting was performed to analyze the expression levels of p62, Atg5, and Atg12 in each group.

p62 = assay: Western blotting of sclera after myopia induction, p62; assay type: in vivo, mice; conditions: eye drop 3 weeks
Experimental: as §2
(§3) After 3 weeks of myopia induction and eye drop administration, the eyeballs were enucleated from the mice, and the sclera was isolated. Then, western blotting was performed to analyze the expression levels of p62, Atg5, and Atg12 in the group administered with X441A and the group administered with PBS.

Atg5, and Atg12 = assay: Western blotting of sclera after myopia induction, Atg5/Atg12; assay type: in vivo, mice; conditions: eye drop 3 weeks
Experimental: as §2, §3

[5] = tested on: pIRE1/IRE and p-eIF2/eIF2; assay: Endoplasmic reticulum stress pathway activation in myopic sclera; assay type: in vivo, mice; conditions: eye drop 3 weeks
Excerpt: Thus, the attachment of a minus lens may enhance autophagy, and autophagy was not shown to be complete in the control group. […] This is thought to be the mechanism by which myopia progression is inhibited.

Solubility = assay type: physicochemical; conditions: in DMSO

| SMILES | Cell viability under ER stress (HEK293 cells [1]; 100 μM pre-incubation 12 h, then thapsigargin 10 μM or tunicamycin 5.0 μg/mL 48 h) | EC50 (HEK293 cells [1]) [µM] | Concentration at which activity was shown (HEK293 cells [1]) [µM] | Cytotoxicity (HEK293 cells [2]; up to 100 μM) | Reversibility of self-assembly [3] | Diameter of detectable assemblies [4] [μm] | Axial length elongation of eyes (C57BL6J mice) | Myopic shift in refractive index (C57BL6J mice) | Expression level of p62 (p62) | Increase in expression of At5/Atg12 (Atg5, and Atg12) | Activation of the endoplasmic reticulum stress pathway caused by myopia induction [5] | Solubility (Solubility) | Efficacy 5 μM (ER stress inhibition activity) (HEK293 cells [1]; compound 5 μM 12 to 18 h, then tunicamycin 5 μg/mL 48 h) | Efficacy 25 μM (ER stress inhibition activity) (HEK293 cells [1]; compound 25 μM 12 to 18 h, then tunicamycin 5 μg/mL 48 h) | Efficacy 100 μM (ER stress inhibition activity) (HEK293 cells [1]; compound 100 μM 12 to 18 h, then tunicamycin 5 μg/mL 48 h) | Cytotoxicity (HEK293 cells [2]; at 25 μM) | Cytotoxicity (HEK293 cells [2]; at 100 μM) |
| --- | --- | --- | --- | --- | --- | --- | --- | --- | --- | --- | --- | --- | --- | --- | --- | --- | --- |
| NS(=O)(=O)c1ccc(Nc2ccn3c(n2)nc(=O)c2sc4cc(F)ccc4c23)cc1 [compound 1] | enhanced cell viability under ER stress conditions | 38.1 | 100 | no obvious cytotoxicity | disintegration of the particles | > 1 | such changes were not observed | such changes were not observed | decreased | enhanced regardless of the administration of X441A | did not occur | readily soluble |  |  |  |  |  |
| COc1ccc2c(c1)sc1c(=O)nc3nc(Nc4ccc(S(N)(=O)=O)cc4)ccn3c12 [compound 6] |  | 13.7 | 25 |  |  |  |  |  |  |  |  |  | − | ++ | ++ | no obvious cytotoxicity | slightly reduced cell viability |
